Tests used:
[1] = system: human FDRG gene; test: FDRG gene expression by real-time RT-PCR in primary skeletal muscle cells; assay type: cell-based; conditions: Veh = 1.00, same RNA sample
Protocol: (§1) Reverse transcription (RT) and PCR were conducted in one step using “One-Step RT-PCR Master Mix Reagent” kit (Applied Biosystems, Foster City, Calif.) in ABI PRISM 7700 Sequence Detection System (Applied Biosystems). Each reaction was performed in a total volume of 25 μl containing 40 ng of total RNA. The reaction condition was: 48° C. for 30 minutes, 60° C. for 30 minutes, 94° C. for 5 minutes, followed by 40 cycles of 94° C. for 20 seconds and 60° C. for 1 minute. The primers for 18S ribosomal RNA were developed and provided by Applied Biosystems. The measurement of human 18S ribosomal RNA was used as an internal control for normalization of measuring and loading errors. PCR data were collected by Ct value (the cycle number at which logarithmic PCR plots cross a calculated threshold line) according to the manufacturer's guidelines and the value was used to determine the Δ^Ct (Ct of the target gene minus the Ct of 18S ribosomal RNA controls). Relative mRNA level was calculated using the equation 2^−ΔΔCt as described previously (Heid et al., 1996, Genome Res. 6:986-994).
The nucleotide sequence of the human FDRG gene (AX278133) is provided in SEQ ID NO: 1 and the sequence alignment between W30988 and FDRG gene is shown in FIG. 1. […] Quantitative real-time RT-PCR was performed to test whether gene expression of the human FDRG gene is regulated by PPARα. […]

[2] = system: Pa9 gene; test: Pa9 gene expression by real-time RT-PCR in primary adipocytes; assay type: cell-based, human; conditions: about 18-20 hours, vehicle control = 100
From the text: (§2) Human hepatocyte HuH7 cells, which are epithelial cells of liver, were obtained from Japan Health Science Research Resources Bank (Osaka, Japan). Human primary adipocytes, which are connective tissue cells specialized for the synthesis and storage of fat, were obtained from Zen-Bio, Inc (Research Triangle Park, NC). Human primary skeletal muscle cells (SKMC) were obtained from Cambrex Bio Science (Walkersville, Md.). PPARα agonists, Wy14643 (Agatha, et al, 2000, Archives of Biochemistry and Biophysics 380:353-359) and fenofibrates were obtained from Cayman Chemical (Ann Arbor, Mich.) and Sigma (St Louis, Mo.), respectively.
(§3) Human HuH7 cells were cultured in Dulbecco's Modified Eagle Medium with 10% Fetal Bovine Serum (Gibco, N.Y.). Cells were treated with charcoal-stripped, delipidated calf serum (5%) (Sigma, St Louis, Mo.) for about 4-18 hours. Then, cells were treated with different concentrations of PPARα agonist (Wy14643 or fenofibrates) for about 20-24 h. Human SKM cells were cultured in Skeletal Muscle Growth Medium (Cambrex Bio Science, Walkersville, Md.), and were treated with different concentrations of PPARα agonist (Wy14643 or fenofibrates) for about 18-20 hours. Human primary adipocytes were cultured in Preadipocyte Medium, (Cat #PM—1, Zen-Bio, Inc., Research Triangle Park, NC), and were treated with different concentrations of PPARα agonist (Wy14643 or fenofibrates) for about 18-20 hours.
Total RNA was purified from cultured cells following the protocol provided by the manufacturer (Trizon method, Invitrogen Inc. Ca). The polymerase chain reaction (PCR) primers and fluorescent probes (TagMan probes) for Pa9, Pa13, and Pa21 were designed from GenBank sequences of accession numbers W30988, AB000584, and NM_080725, respectively. The primers and probes were designed using the software PrimerDesign (Applied Biosystems, Foster City, Calif.). The PCR primers for Pa9 were SEQ ID NO: 7, (5-[…]) and SEQ ID NO: 8 (5-[…]). […] The PCR primers for Pa13 were SEQ ID NO: 10 (5-[…], T) and SEQ ID NO: 11 (5-[…] T). […] The PCR primers for Pa21 were SEQ ID NO: 13 (5-[…] C) and SEQ ID NO: 14 (5-[…]). […]
Reverse transcription (RT) and PCR were conducted in one step using “One-Step RT-PCR Master Mix Reagent” kit (Applied Biosystems, Foster City, Calif.) in ABI PRISM 7700 Sequence Detection System (Applied Biosystems). […] PCR data were collected by Ct value (the cycle number at which logarithmic PCR plots cross a calculated threshold line) according to the manufacturer's guidelines and the value was used to determine the Δ^Ct (Ct of the target gene minus the Ct of 18S ribosomal RNA controls). Relative mRNA level was calculated using the equation 2^−ΔΔCt as described previously (Heid et al., 1996, Genome Res. 6:986-994).

[3] = system: Pa21 gene; test: Pa21 gene expression by real-time RT-PCR in HuH7 hepatocytes; assay type: cell-based, human; conditions: about 20-24 h, vehicle control = 100
From the text: as §2, §3
(§4) Total RNA was purified from cultured cells following the protocol provided by the manufacturer (Trizon method, Invitrogen Inc. Ca). The polymerase chain reaction (PCR) primers and fluorescent probes (TagMan probes) for Pa9, Pa13, and Pa21 were designed from GenBank sequences of accession numbers W30988, AB000584, and NM_080725, respectively. The primers and probes were designed using the software PrimerDesign (Applied Biosystems, Foster City, Calif.). The PCR primers for Pa9 were SEQ ID NO: 7, (5-[…]) and SEQ ID NO: 8 (5-[…]). […] The PCR primers for Pa13 were SEQ ID NO: 10 (5-[…], T) and SEQ ID NO: 11 (5-[…] T). […] The PCR primers for Pa21 were SEQ ID NO: 13 (5-[…] C) and SEQ ID NO: 14 (5-[…]). […] All primers and probes were synthesized by Keystone Labs (Camarillo, Calif.).
as §1

[4] = system: Pa13 gene; test: Pa13 gene expression by real-time RT-PCR in primary adipocytes; assay type: cell-based, human; conditions: about 18-20 hours, vehicle control = 100
From the text: as §2, §3, §4, §1

[5] = system: Pa9 gene; test: Pa9 gene expression by real-time RT-PCR in HuH7 hepatocytes; assay type: cell-based, human; conditions: for Pa9 (W38098) gene expression, Percentage ± SE (%): HuH7 hepatocytes, about 20-24 h, vehicle control = 100
From the text: as §2, §3, §4, §1

[6] = system: Pa9 gene; test: Pa9 gene expression by real-time RT-PCR in primary skeletal muscle cells; assay type: cell-based, human; conditions: for Pa9 (W38098) gene expression, Percentage ± SE (%): about 18-20 hours, vehicle control = 100; for Pa9 gene expression, Fold of Induction: Veh = 1.00
From the text: as §2, §3, §4, §1
The nucleotide sequence of the human FDRG gene (AX278133) is provided in SEQ ID NO: 1 and the sequence alignment between W30988 and FDRG gene is shown in FIG. 1. […] Quantitative real-time RT-PCR was performed to test whether gene expression of the human FDRG gene is regulated by PPARα.

[7] = system: Pa21 gene; test: Pa21 gene expression by real-time RT-PCR in primary adipocytes; assay type: cell-based, human; conditions: about 18-20 hours, vehicle control = 100
From the text: as §2, §3, §4, §1

Compound: Cc1cccc(Nc2cc(Cl)nc(SCC(=O)O)n2)c1C [Wy14643]
- FDRG gene expression, Fold of Induction ([1]; 30 uM): 4.37 fold
- FDRG gene expression, Fold of Induction ([1]; 100 uM): 7.8 fold
- FDRG gene expression, Fold of Induction ([1]; 100 uM, listed as WY14643): 7.80 fold
- Pa9 (W38098) gene expression, Percentage ± SE (%) ([2]; 10 uM): 124 ± 7.2%
- Pa9 (W38098) gene expression, Percentage ± SE (%) ([2]; 50 uM): 358 ± 6.9%
- Pa9 (W38098) gene expression, Percentage ± SE (%) ([2]; 250 uM): 437 ± 17.3%
- Pa21 (H4960) gene expression, Percentage ± SE (%) ([3]; 3 uM): 145.5 ± 21.9%
- Pa21 (H4960) gene expression, Percentage ± SE (%) ([3]; 10 uM): 163.6 ± 35%
- Pa21 (H4960) gene expression, Percentage ± SE (%) ([3]; 30 uM): 372.7 ± 17.8%
- Pa21 (H4960) gene expression, Percentage ± SE (%) ([3]; 100 uM): 227.3 ± 14.8%
- Pa21 (H4960) gene expression, Percentage ± SE (%) ([3]; 300 uM): 481.8 ± 12.1%
- Pa13 (N26311) gene expression, Percentage ± SE (%) ([4]; 10 uM): 56 ± 10%
- Pa13 (N26311) gene expression, Percentage ± SE (%) ([4]; 50 uM): 55 ± 2%
- Pa13 (N26311) gene expression, Percentage ± SE (%) ([4]; 250 uM): 214 ± 7.9%
- Pa9 (W38098) gene expression, Percentage ± SE (%) ([5]; 3 uM): 90 ± 17%
- Pa9 (W38098) gene expression, Percentage ± SE (%) ([5]; 10 uM): 190 ± 62.1%
- Pa9 (W38098) gene expression, Percentage ± SE (%) ([5]; 30 uM): 200 ± 48%
- Pa9 (W38098) gene expression, Percentage ± SE (%) ([5]; 100 uM): 540 ± 57.8%
- Pa9 (W38098) gene expression, Percentage ± SE (%) ([5]; 300 uM): 690 ± 42.8%
- gene expression of Pa9, Pa13, or Pa21 (statement in words) ([5]; human HuH7 cells, primary SKMU cells, or primary adipocytes (Tables 1-3)): increased gene expression
- Pa9 (W38098) gene expression, Percentage ± SE (%) ([6]; 3 uM): 110 ± 24.5%
- Pa9 (W38098) gene expression, Percentage ± SE (%) ([6]; 10 uM): 230 ± 35.7%
- Pa9 gene expression, Fold of Induction ([6]; 30 uM): 3.64 fold
- Pa9 (W38098) gene expression, Percentage ± SE (%) ([6]; 30 uM): 870 ± 30%
- Pa9 gene expression, Fold of Induction ([6]; 100 uM): 6.45 fold
- Pa9 (W38098) gene expression, Percentage ± SE (%) ([6]; 100 uM): 860 ± 0.9%
- Pa9 (W38098) gene expression, Percentage ± SE (%) ([6]; 300 uM): 610 ± 10.2%
- Pa21 (H4960) gene expression, Percentage ± SE (%) ([7]; 10 uM): 92 ± 10%
- Pa21 (H4960) gene expression, Percentage ± SE (%) ([7]; 50 uM): 108 ± 2%
- Pa21 (H4960) gene expression, Percentage ± SE (%) ([7]; 250 uM): 314 ± 2.5%

Reference: patent US20050191668A1, “Methods of using peroxisome proliferator-activated receptor alpha target genes” (priority 2004, published 2005)
